Results on one compound are retold here after US3985764A, “Production of fused oxazoline azetidinones” (Queen's University, priority 1974, dated 1976).

In the test the test system is S. lutea. As to the kind of experiment: antibacterial activity vs. S. lutea (plate assay). Format: cell-based. The conditions noted are these: versus S. lutea.

As for `CC1(C)O[C@@H]2[C@H](N3C(=O)c4ccccc4C3=O)C(=O)N2[C@H]1C(=O)O` [6-phthalimido oxapenicillin], the “antibacterial activity relative to phthalimidopenicillin” value is given as “one-tenth the level of phthalimidopenicillin”.
